# Assay results published in patent US20090270400A1 (priority 2004, published 2009).
# Read-outs that look alike come from different tables or passages of the source.
# System: carrageenin-induced hyperalgesia on a rat's paw
# Details: in vivo
compound,measurement,setting,value
CN1CC[C@]23c4c5ccc(O)c4O[C@H]2[C@@H](O)C=C[C@H]3[C@H]1C5 [morphine],dose starting from which the pain threshold following a mechanical stimulus applied to the rats' paws is significantly reduced,ip,≥ 1 mg/kg
"N[C@@H](CSSC[C@H](N)C(=O)N1CCn2cc(-c3ccccc3)nc2[C@@H]1CC1CCCCC1)C(=O)N1CCn2cc(-c3ccccc3)nc2[C@@H]1CC1CCCCC1 [compound 1, (1R)-1-[({(2R)-2-amino-3-[(8S)-8-(cyclohexylmethyl)-2-phenyl-5,6-dihydroimidazo [1,2-α]pyrazin-7(8H)-yl]-3-oxopropyl}dithio)methyl]-2-[(8S)-8-(cyclohexylmethyl)-2-phenyl-5,6-dihydroimidazo [1,2-α]pyrazin-7(8H)-yl]-2-oxoethylamine]",dose starting from which the pain threshold following a mechanical stimulus applied to the rats' paws is significantly reduced,iv,≥ 1 mg/kg
